Results as given in ChEMBL document CHEMBL1201862, “PubChem BioAssay data set” (2004).
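Five compound concentrations were applied to cells in 96-well plates for 48 hours; endpoints were derived by simple linear interpolation of the resulting dose-response curve. GI50 marks 50% less growth.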 Calls of active or inactive are those of the source. Rule as the data show it: active = GI50 up to about 1.1 µM and inactive = higher.

Experiments:
Experiment in all cases: NCI-60 cell line screen, 48 h
[1] = tested on: SF-295
[2] = tested on: SW-620
[3] = tested on: RXF 393
[4] = tested on: RPMI-8226
[5] = tested on: SK-MEL-5
[6] = tested on: SNB-75
[7] = tested on: OVCAR-8
[8] = tested on: EKVX
[9] = tested on: MCF7
[10] = tested on: MDA-MB-435
[11] = tested on: A549
[12] = tested on: NCI-H226
[13] = tested on: M14
[14] = tested on: OVCAR-3
[15] = tested on: COLO 205
[16] = tested on: MOLT-4
[17] = tested on: SF-539
[18] = tested on: BT-549
[19] = tested on: KM12
[20] = tested on: CAKI-1
[21] = tested on: OVCAR-5
[22] = tested on: SNB-19
[23] = tested on: HCT-116
[24] = tested on: DU-145
[25] = tested on: PC-3
[26] = tested on: HOP-92
[27] = tested on: UACC-257
[28] = tested on: LOX IMVI
[29] = tested on: NCI-H522
[30] = tested on: TK-10
[31] = tested on: OVCAR-4
[32] = tested on: T47D
[33] = tested on: Hs-578T
[34] = tested on: SK-OV-3
[35] = tested on: HCC 2998
[36] = tested on: U-251
[37] = tested on: SN12C
[38] = tested on: UO-31
[39] = tested on: UACC-62
[40] = tested on: IGROV-1
[41] = tested on: K562
[42] = tested on: HOP-62
[43] = tested on: SK-MEL-28
[44] = tested on: CCRF-CEM
[45] = tested on: HT-29
[46] = tested on: MDA-N
[47] = tested on: ACHN
[48] = tested on: NCI-H460
[49] = tested on: SF-268
[50] = tested on: NCI-H23
[51] = tested on: Malme-3M
[52] = tested on: NCI/ADR-RES
[53] = tested on: SK-MEL-2
[54] = tested on: 786-0
[55] = tested on: MDA-MB-231
[56] = tested on: A498
[57] = tested on: HCT-15
[58] = tested on: HL-60

CC1(C(=O)O)CCC(C(=O)O)C(C)(C)O1 (configuration not stated)
GI50 [1]: > 100 µM (inactive)
GI50 [2]: > 100 µM (inactive)
GI50 [3]: > 100 µM (inactive)
GI50 [4]: > 100 µM (inactive)
GI50 [5]: > 100 µM (inactive)
GI50 [6]: > 100 µM (inactive)
GI50 [7]: > 100 µM (inactive)
GI50 [8]: > 100 µM (inactive)
GI50 [9]: > 100 µM (inactive)
GI50 [10]: > 100 µM (inactive)
GI50 [11]: > 100 µM (inactive)
GI50 [12]: > 100 µM (inactive)
GI50 [13]: > 100 µM (inactive)
GI50 [14]: 29.2 µM (inactive)
GI50 [15]: > 100 µM (inactive)
GI50 [16]: > 100 µM (inactive)
GI50 [17]: > 100 µM (inactive)
GI50 [18]: > 100 µM (inactive)
GI50 [19]: > 100 µM (inactive)
GI50 [20]: > 100 µM (inactive)
GI50 [21]: > 100 µM (inactive)
GI50 [22]: > 100 µM (inactive)
GI50 [23]: > 100 µM (inactive)
GI50 [24]: > 100 µM (inactive)
GI50 [25]: > 100 µM (inactive)
GI50 [26]: > 100 µM (inactive)
GI50 [27]: > 100 µM (inactive)
GI50 [28]: > 100 µM (inactive)
GI50 [29]: > 100 µM (inactive)
GI50 [30]: > 100 µM (inactive)
GI50 [31]: > 100 µM (inactive)
GI50 [32]: > 100 µM (inactive)
GI50 [33]: > 100 µM (inactive)
GI50 [34]: > 100 µM (inactive)
GI50 [35]: > 100 µM (inactive)
GI50 [36]: > 100 µM (inactive)
GI50 [37]: > 100 µM (inactive)
GI50 [38]: > 100 µM (inactive)
GI50 [39]: > 100 µM (inactive)
GI50 [40]: > 100 µM (inactive)
GI50 [41]: > 100 µM (inactive)
GI50 [42]: 4.9 µM (inactive)
GI50 [43]: > 100 µM (inactive)
GI50 [44]: > 100 µM (inactive)
GI50 [45]: > 100 µM (inactive)
GI50 [46]: > 100 µM (inactive)
GI50 [47]: > 100 µM (inactive)
GI50 [48]: > 100 µM (inactive)
GI50 [49]: > 100 µM (inactive)
GI50 [50]: > 100 µM (inactive)
GI50 [51]: > 100 µM (inactive)
GI50 [52]: > 100 µM (inactive)
GI50 [53]: > 100 µM (inactive)

Oc1cc(/C=C/c2ccccc2)nc2cc3c(cc12)OCO3
GI50 [2]: 6.37 µM (inactive)
GI50 [4]: 0.724 µM (active)
GI50 [6]: 6.93 µM (inactive)
GI50 [7]: 5.53 µM (inactive)
GI50 [8]: 6.12 µM (inactive)
GI50 [9]: 4.85 µM (inactive)
GI50 [10]: 1.98 µM (inactive)
GI50 [11]: 4.95 µM (inactive)
GI50 [13]: 5.25 µM (inactive)
GI50 [54]: 3.32 µM (inactive)
GI50 [15]: 2.38 µM (inactive)
GI50 [16]: 2.71 µM (inactive)
GI50 [17]: 2.08 µM (inactive)
GI50 [18]: 5.73 µM (inactive)
GI50 [19]: 3.99 µM (inactive)
GI50 [21]: 3.54 µM (inactive)
GI50 [22]: 3.78 µM (inactive)
GI50 [23]: 3.19 µM (inactive)
GI50 [24]: 7.06 µM (inactive)
GI50 [26]: 2.08 µM (inactive)
GI50 [27]: 22.1 µM (inactive)
GI50 [55]: 2.79 µM (inactive)
GI50 [30]: 10.7 µM (inactive)
GI50 [31]: 14.7 µM (inactive)
GI50 [32]: 3.28 µM (inactive)
GI50 [33]: 3.78 µM (inactive)
GI50 [34]: 4.63 µM (inactive)
GI50 [35]: 2.9 µM (inactive)
GI50 [36]: 2.52 µM (inactive)
GI50 [37]: 6.04 µM (inactive)
GI50 [38]: 6.01 µM (inactive)
GI50 [39]: 3.19 µM (inactive)
GI50 [40]: 4.56 µM (inactive)
GI50 [42]: 3.47 µM (inactive)
GI50 [43]: 8.65 µM (inactive)
GI50 [45]: 2.2 µM (inactive)
GI50 [46]: 2.03 µM (inactive)
GI50 [47]: 10.9 µM (inactive)
GI50 [48]: 3.1 µM (inactive)
GI50 [50]: 3.26 µM (inactive)
GI50 [52]: 2.04 µM (inactive)
GI50 [56]: 4.2 µM (inactive)
GI50 [53]: 3.72 µM (inactive)
GI50 [57]: 3.01 µM

Cc1cc2c(cc1Cl)SC(NNC(=O)c1ccncc1)=NS2(=O)=O
GI50 [1]: > 10 µM (inactive)
GI50 [2]: > 10 µM (inactive)
GI50 [3]: > 10 µM (inactive)
GI50 [4]: > 10 µM (inactive)
GI50 [5]: > 10 µM (inactive)
GI50 [6]: > 10 µM (inactive)
GI50 [7]: > 10 µM (inactive)
GI50 [8]: > 10 µM (inactive)
GI50 [10]: > 10 µM (inactive)
GI50 [11]: > 10 µM (inactive)
GI50 [12]: > 10 µM (inactive)
GI50 [13]: > 10 µM (inactive)
GI50 [54]: > 10 µM (inactive)
GI50 [14]: > 10 µM (inactive)
GI50 [15]: > 10 µM (inactive)
GI50 [16]: > 10 µM (inactive)
GI50 [17]: > 10 µM (inactive)
GI50 [18]: > 10 µM (inactive)
GI50 [19]: > 10 µM (inactive)
GI50 [20]: > 10 µM (inactive)
GI50 [21]: > 10 µM (inactive)
GI50 [22]: > 10 µM (inactive)
GI50 [23]: > 10 µM (inactive)
GI50 [24]: > 10 µM (inactive)
GI50 [25]: > 10 µM (inactive)
GI50 [27]: > 10 µM (inactive)
GI50 [28]: > 10 µM (inactive)
GI50 [55]: > 10 µM (inactive)
GI50 [29]: > 10 µM (inactive)
GI50 [30]: > 10 µM (inactive)
GI50 [31]: > 10 µM (inactive)
GI50 [32]: > 10 µM (inactive)
GI50 [33]: > 10 µM (inactive)
GI50 [34]: > 10 µM (inactive)
GI50 [35]: > 10 µM (inactive)
GI50 [36]: > 10 µM (inactive)
GI50 [37]: > 10 µM (inactive)
GI50 [39]: > 10 µM (inactive)
GI50 [40]: > 10 µM (inactive)
GI50 [58]: > 10 µM (inactive)
GI50 [41]: > 10 µM (inactive)
GI50 [42]: > 10 µM (inactive)
GI50 [43]: > 10 µM (inactive)
GI50 [44]: > 10 µM (inactive)
GI50 [45]: > 10 µM (inactive)
GI50 [46]: > 10 µM (inactive)
GI50 [47]: > 10 µM (inactive)
GI50 [48]: > 10 µM (inactive)
GI50 [49]: > 10 µM (inactive)
GI50 [50]: > 10 µM (inactive)
GI50 [51]: > 10 µM (inactive)
GI50 [52]: > 10 µM (inactive)
GI50 [56]: > 10 µM (inactive)
GI50 [53]: > 10 µM (inactive)
GI50 [57]: > 10 µM
